Active and inactive are the calls of the source. The rule behind the calls is not given here.
Biological target: Serine/threonine-protein kinase mTOR (Homo sapiens) (UniProt P42345)
Experiment: binders of mTOR FRB domain, biophysical, NMR (AID 1648)
Conditions: NMR binding to FRB domain, chemical shift

Serine/threonine-protein kinase mTOR (Homo sapiens), sequence (P42345 2015-2114): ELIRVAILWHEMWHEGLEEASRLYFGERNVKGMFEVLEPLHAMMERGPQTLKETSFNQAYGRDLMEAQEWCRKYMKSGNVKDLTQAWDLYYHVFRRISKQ

SMILES	Kd
CCc1noc(C)c1C(=O)N1CCCC1	> 4 mM (inactive)
O=C1NC(=S)N/C1=C\c1ccccc1F	> 4 mM (inactive)
Oc1cnc2ccccc2c1CN1CCOCC1	> 4 mM (inactive)
COC(=O)Cn1c2ccccc2c2nc(C)sc21	> 4 mM (inactive)
NS(=O)(=O)c1ccc(N=Cc2cccs2)cc1	> 4 mM (inactive)
C=C(C)[C@H]1COc2cc3oc(=O)ccc3cc2O1	> 4 mM (inactive)
CC(=O)Nc1nc(C)nc(-c2ccccc2)c1C(C)=O	> 4 mM (inactive)
CCc1ccccc1OCc1nnc(N)s1	> 4 mM (inactive)
Cc1nc(N)sc1C(=O)N/N=C/c1ccncc1	> 4 mM (inactive)
Nc1nncn1C(=O)c1c(Cl)cccc1Cl	> 4 mM (inactive)
c1ccc2c(c1)[nH]c1cnccc12	> 4 mM (inactive)
Cc1cc(C)nc(/N=C(\N)N2CCc3ccccc32)n1	> 4 mM (inactive)
NC(=O)NCCCC(N)C(=O)O (stereo not given)	> 4 mM (inactive)
COc1ccc2c3c([nH]c2c1)C(C)=NCC3	> 4 mM (inactive)
CC(C)(CO)NC(=O)c1ccccc1F	> 4 mM (inactive)
O=c1[nH]cnc2nn(-c3ccccc3)nc12	> 4 mM (inactive)
O=C(O)C1CSC(c2ccco2)N1 (stereo not given)	> 4 mM (inactive)
O=C(NC1=NCCS1)c1csc2ccccc12	> 4 mM (inactive)
CC(=O)NC(=S)Nc1ccc(N(C)C(C)=O)cc1	> 4 mM (inactive)
Cc1noc(C)c1C(=O)N1CCC2(CC1)OCCO2	> 4 mM (inactive)
COc1cccc(N2CCNCC2)c1	> 4 mM (inactive)
Cc1c(N=Cc2ccc[nH]2)c(=O)n(-c2ccccc2)n1C	> 4 mM (inactive)

SMILES	Kd
O=C(/C=C/c1ccccc1)c1ccc(O)cc1	> 4 mM (inactive)
O=C(O)CCCCC1SCC2NC(=O)NC21 (stereo not given)	> 4 mM (inactive)
Cc1ncc(C[n+]2csc3ccccc32)c(N)n1	> 4 mM (inactive)
Nc1ccc(S(=O)(=O)Nc2ccc(F)cc2F)cc1	> 4 mM (inactive)
NC(=O)CC1Nc2cccc3cccc(c23)NC1=O (stereo not given)	> 4 mM (inactive)
COc1ccc(-c2coc3cc(OC(C)=O)cc(OC(C)=O)c3c2=O)cc1	> 4 mM (inactive)
CC(C)=CC(=O)Nc1ccccc1C(N)=O	> 4 mM (inactive)
O=C(O)CCn1c(=O)oc2ccccc21	> 4 mM (inactive)
O=C(O)c1ccc(-n2cncn2)cc1	> 4 mM (inactive)
CCCS(=O)(=O)N1CCN(c2ccccc2F)CC1	> 4 mM (inactive)
CN(C)N1C(=O)c2ccccc2C1=O	> 4 mM (inactive)
O=CN1CCN(C(=O)c2ccco2)CC1	> 4 mM (inactive)
NCc1nnnn1-c1ccccc1	> 4 mM (inactive)
CC(N)C(=O)c1ccco1 (stereo not given)	> 4 mM (inactive)
COc1cc2c(cc1-c1cc3cc4ccoc4cc3oc1=O)OCO2	> 4 mM (inactive)
O=NN1C(=O)c2ccccc2C1=O	> 4 mM (inactive)
C[n+]1ccn(C/C(N)=N/O)c1	> 4 mM (inactive)
Nc1cccc(CC(=S)N2CCOCC2)c1	> 4 mM (inactive)
O=c1cccc2n1C[C@H]1CNCC2C1	> 4 mM (inactive)
CC(=O)Nc1ccc(C(=O)NC2=NCCS2)cc1	> 4 mM (inactive)
O=C(O)Cc1csc(-c2ccccc2)n1	> 4 mM (inactive)
c1cnc(N2CCSCC2)nc1	> 4 mM (inactive)

SMILES	Kd
Cc1ccccc1NC(=O)CSc1ccnc(=O)[nH]1	> 4 mM (inactive)
O=C(O)C1CCN(S(=O)(=O)c2cccs2)CC1	> 4 mM (inactive)
Nc1cc(=O)[nH]c(=S)n1-c1ccc(F)cc1	> 4 mM (inactive)
CN1CCN(C(=O)Nc2cccc3ccccc23)CC1	> 4 mM (inactive)
COC(=O)c1ccc(Cl)c(NC(C)=O)c1	> 4 mM (inactive)
COC(=O)C[C@H]1C(C)(C)C(=O)[C@@H]2CC3C4=CC(=O)O[C@@H](c5ccoc5)[C@]4(C)CCC3C1(C)C2=O (stereo not given in full)	> 4 mM (inactive)
CC(=O)NC(C)(C)C1CC=C(C)/C(=N\O)C1 (stereo not given)	> 4 mM (inactive)
O=C(NCO)c1ccccc1Cl	> 4 mM (inactive)
COc1cc(O)c2c(=O)c(O)c(-c3ccc(O)c(O)c3)oc2c1	> 4 mM (inactive)
CC(=O)N/N=C(\C)c1cccc(N)c1	> 4 mM (inactive)
Cc1ccc(=O)[nH]c1	> 4 mM (inactive)
Cc1ccc(N2C(=O)CCC2=O)cc1	> 4 mM (inactive)
Nc1cc(=O)[nH]c(=O)n1Cc1ccco1	> 4 mM (inactive)
O=C(Nc1ccccc1)NC1CCS(=O)(=O)C1 (stereo not given)	> 4 mM (inactive)
COC(=O)[C@@]1(C)CCC[C@]2(C)c3ccc(O)c(C(C)C)c3CCC12 (stereo not given in full)	> 4 mM (inactive)
O=C(O)CCC(=O)Nc1ccccn1	> 4 mM (inactive)
Cn1ncc(C(=O)NC2CCCCC2)c1Cl	> 4 mM (inactive)
O=C(Oc1ccc2c(c1)OCC2=O)c1ccccc1	> 4 mM (inactive)
NC(=O)c1ccc(C(N)=O)c(-c2ccccc2)c1	> 4 mM (inactive)
CC1(C)O[C@H]2CC(=O)OC[C@]23[C@H]2CC[C@@]4(C)[C@H](c5ccoc5)OC(=O)[C@H]5O[C@]54[C@]2(C)C(=O)C[C@@H]13	> 4 mM (inactive)
O=C(Nn1cnnc1)c1cc2c(s1)CCCCC2	> 4 mM (inactive)
O=C1CSC(=Nc2ccc(O)cc2)N1	> 4 mM (inactive)

SMILES	Kd
CC(C)NC(=O)Cc1c(O)c2ccccc2[nH]c1=O	> 4 mM (inactive)
CC(C)=CCCC1(C)C=Cc2c(O)c3c(c(CC=C(C)C)c2O1)OC12C(=CCCC1C(C)(C)O[C@@]2(C/C=C(\C)C(=O)O)C(=O)O)C3=O (stereo not given in full)	> 4 mM (inactive)
CC(=O)N1CN(C(C)=O)CN(C(C)=O)C1	> 4 mM (inactive)
CC(O)C(=O)N/N=C/c1ccccc1 (stereo not given)	> 4 mM (inactive)
Nc1ccc2[nH]ccc2c1	> 4 mM (inactive)
NC(=O)c1ccc(N2CCCCC2)c(N)c1	> 4 mM (inactive)
CC1(C)C(=O)C=C[C@@]2(C)C1=C(O)C(=O)[C@]1(C)C2CC[C@@]2(C)[C@H](c3ccoc3)C[C@H]3O[C@]321 (stereo not given in full)	> 4 mM (inactive)
O=[n+]1cc(-c2ccccc2)n([O-])c2c1CCC2	> 4 mM (inactive)
C[C@]12CCC3C(CC[C@]4(O)C[C@@H](O)CC[C@]34C=O)[C@@]1(O)CCC2C1=CC(=O)OC1 (stereo not given in full)	> 4 mM (inactive)
CCN1CCn2c1nc(N1CCOCC1)nc2=O	> 4 mM (inactive)
NC[C@H]1O[C@H](O[C@H]2[C@H](O)[C@@H](O[C@H]3O[C@H](CO)[C@@H](O)[C@H](N)[C@H]3O)[C@H](N)C[C@@H]2N)[C@H](N)[C@@H](O)[C@@H]1O	> 4 mM (inactive)
O=S1(=O)C=C(Nc2ccccc2)CC1	> 4 mM (inactive)
O=c1c[n+]([O-])c2ccccc2n1OCc1ccccn1	> 4 mM (inactive)
CC(=O)O[C@]1(C)CC[C@@]23CC1C(C)(C)[C@@H]2CC[C@H]3C	> 4 mM (inactive)
Nc1ncnc2c1ncn2CCN1CCOCC1	> 4 mM (inactive)
OCc1ccccc1CN1CCOCC1	> 4 mM (inactive)
CC(=O)Nc1cc(O)cc(O)c1	> 4 mM (inactive)
CCc1c(C)[nH]c(=S)c(C(N)=O)c1C	> 4 mM (inactive)
CC(C)=NNC(=O)c1ccccc1	> 4 mM (inactive)

Reference: PubChem BioAssay AID1648 (Sanford-Burnham Center for Chemical Genomics, 2009)
